Reference: ChEMBL document CHEMBL3885861, “Open TG-GATES”

Species on record: Rattus norvegicus
Test: Open TG-GATES - Regimen: Single
Assay type: toxicity, organism-based, Sprague-Dawley
Set-up: regimen Single, gender Male, age 6 weeks
Conditions: in vivo, po, 0 mg/kg, route gavage, dose level Control; for APTT / Bas / Eos / Fbg / Hb / Ht / Lym / MCH / MCHC / MCV / Mono / Neu / PT / Plat / RBC / Ret: tissue Blood; for KIDNEY_L / KIDNEY_R / KIDNEY_TOTAL: tissue Kidney; for LIVER: tissue Liver; for ALP / ALT / AST / BUN / CRE / Ca / Cl / DBIL / GLC / IP / K / LDH / Na / PL / RALB / TBIL / TC / TG / TP / gamma-GTP: tissue Plasma

**Q.** Which results are given for `COc1ccc2[nH]c([S+]([O-])Cc3ncc(C)c(OC)c3C)nc2c1` (stereo not drawn) [OMEPRAZOLE]?
**A.** TERMINAL_BW (3 h): 218.5 g; APTT (3 h): 20.5 s; Bas (3 h): 0%; Eos (3 h): 1%; Fbg (3 h): 206.4 mg/dL; Hb (3 h): 13 g/dL; Ht (3 h): 38.5%; Lym (3 h): 77.8%; MCH (3 h): 21.4 pg; MCHC (3 h): 33.9%; MCV (3 h): 63.1 fL; Mono (3 h): 2.4%; Neu (3 h): 18.6%; PT (3 h): 12.5 s; Plat (3 h): 122.7 x10_4/uL; RBC (3 h): 610.2 x10_4/ul; Ret (3 h): 7.2%; KIDNEY_L (3 h): 0.9 g; KIDNEY_R (3 h): 0.9 g; KIDNEY_TOTAL (3 h): 1.9 g; LIVER (3 h): 9.9 g; ALP (3 h): 855.8 IU/L; ALT (3 h): 33.2 IU/L; AST (3 h): 68.4 IU/L; BUN (3 h): 12.6 mg/dL; CRE (3 h): 0.4 mg/dL; Ca (3 h): 10.8 mg/dL; Cl (3 h): 100.6 meq/L; DBIL (3 h): 0.064 mg/dL; GLC (3 h): 191.8 mg/dL; IP (3 h): 8.3 mg/dL; K (3 h): 3.8 meq/L; LDH (3 h): 171.2 IU/L; Na (3 h): 140.4 meq/L; PL (3 h): 130.8 mg/dL; RALB (3 h): 3.1 g/dL; TBIL (3 h): 0.1 mg/dL; TC (3 h): 69.4 mg/dL; TG (3 h): 59.4 mg/dL; TP (3 h): 5.3 g/dL; gamma-GTP (3 h): 1 IU/L; TERMINAL_BW (6 h): 218.1 g; APTT (6 h): 19.3 s; Bas (6 h): 0%; Eos (6 h): 0.8%; Fbg (6 h): 220.4 mg/dL; Hb (6 h): 13.6 g/dL; Ht (6 h): 39.7%; Lym (6 h): 72.4%; MCH (6 h): 21.4 pg; MCHC (6 h): 34.1%; MCV (6 h): 62.7 fL; Mono (6 h): 3.8%; Neu (6 h): 22.2%; PT (6 h): 12.6 s; Plat (6 h): 123.4 x10_4/uL; RBC (6 h): 634.2 x10_4/ul; Ret (6 h): 7.1%; KIDNEY_L (6 h): 1 g; KIDNEY_R (6 h): 1 g; KIDNEY_TOTAL (6 h): 1.9 g; LIVER (6 h): 9.9 g; ALP (6 h): 923.8 IU/L; ALT (6 h): 32.6 IU/L; AST (6 h): 66 IU/L; BUN (6 h): 11 mg/dL; CRE (6 h): 0.3 mg/dL; Ca (6 h): 10.7 mg/dL; Cl (6 h): 100.8 meq/L; DBIL (6 h): 0.07 mg/dL; GLC (6 h): 201 mg/dL; IP (6 h): 8.8 mg/dL; K (6 h): 3.8 meq/L; LDH (6 h): 181.6 IU/L; Na (6 h): 140 meq/L; PL (6 h): 141.4 mg/dL; RALB (6 h): 3.3 g/dL; TBIL (6 h): 0.1 mg/dL; TC (6 h): 73.4 mg/dL; TG (6 h): 81.2 mg/dL; TP (6 h): 5.4 g/dL; gamma-GTP (6 h): 1.8 IU/L; TERMINAL_BW (9 h): 218.2 g; APTT (9 h): 20.9 s; Bas (9 h): 0%; Eos (9 h): 1%; Fbg (9 h): 212.8 mg/dL; Hb (9 h): 13.3 g/dL; Ht (9 h): 38.6%; Lym (9 h): 78%; MCH (9 h): 21.5 pg; MCHC (9 h): 34.3%; MCV (9 h): 62.6 fL; Mono (9 h): 3%; Neu (9 h): 17.4%; PT (9 h): 13.1 s; Plat (9 h): 119.3 x10_4/uL; RBC (9 h): 615.6 x10_4/ul; Ret (9 h): 7.4%; KIDNEY_L (9 h): 0.9 g; KIDNEY_R (9 h): 1 g; KIDNEY_TOTAL (9 h): 1.9 g; LIVER (9 h): 9.1 g; ALP (9 h): 764.2 IU/L; ALT (9 h): 28 IU/L; AST (9 h): 59.2 IU/L; BUN (9 h): 11.4 mg/dL; CRE (9 h): 0.3 mg/dL; Ca (9 h): 10.7 mg/dL; Cl (9 h): 101 meq/L; DBIL (9 h): 0.06 mg/dL; GLC (9 h): 188.4 mg/dL; IP (9 h): 9.4 mg/dL; K (9 h): 3.9 meq/L; LDH (9 h): 175.4 IU/L; Na (9 h): 140.4 meq/L; PL (9 h): 122.2 mg/dL; RALB (9 h): 3.3 g/dL; TBIL (9 h): 0.1 mg/dL; TC (9 h): 66.4 mg/dL; TG (9 h): 54.6 mg/dL; TP (9 h): 5.5 g/dL; gamma-GTP (9 h): 1.4 IU/L; TERMINAL_BW (24 h): 234.9 g; APTT (24 h): 20.7 s; Bas (24 h): 0%; Eos (24 h): 1%; Fbg (24 h): 229.6 mg/dL; Hb (24 h): 13.2 g/dL; Ht (24 h): 38.7%; Lym (24 h): 78.6%; MCH (24 h): 21.7 pg; MCHC (24 h): 34.1%; MCV (24 h): 63.6 fL; Mono (24 h): 2.6%; Neu (24 h): 17.2%; PT (24 h): 12.1 s; Plat (24 h): 118.9 x10_4/uL; RBC (24 h): 608 x10_4/ul; Ret (24 h): 6.6%; KIDNEY_L (24 h): 1 g; KIDNEY_R (24 h): 1 g; KIDNEY_TOTAL (24 h): 2 g; LIVER (24 h): 11.8 g; ALP (24 h): 979.4 IU/L; ALT (24 h): 35.4 IU/L; AST (24 h): 62.2 IU/L; BUN (24 h): 17.4 mg/dL; CRE (24 h): 0.4 mg/dL; Ca (24 h): 11.1 mg/dL; Cl (24 h): 101.2 meq/L; DBIL (24 h): 0.094 mg/dL; GLC (24 h): 216 mg/dL; IP (24 h): 7.7 mg/dL; K (24 h): 4.2 meq/L; LDH (24 h): 192 IU/L; Na (24 h): 140.6 meq/L; PL (24 h): 151.6 mg/dL; RALB (24 h): 3.4 g/dL; TBIL (24 h): 0.1 mg/dL; TC (24 h): 79.6 mg/dL; TG (24 h): 109 mg/dL; TP (24 h): 5.5 g/dL
